{"source": "paper PMC10990149", "about": "(Proceedings of the National Academy of Sciences of the …, 2024)", "target": "T1, DvhD (DVU1020), cytoplasmic fragment (PAS and HD-GYP domains) (Nitratidesulfovibrio vulgaris, UniProt Q72DA9)", "T1 sequence (Q72DA9 374-701)": "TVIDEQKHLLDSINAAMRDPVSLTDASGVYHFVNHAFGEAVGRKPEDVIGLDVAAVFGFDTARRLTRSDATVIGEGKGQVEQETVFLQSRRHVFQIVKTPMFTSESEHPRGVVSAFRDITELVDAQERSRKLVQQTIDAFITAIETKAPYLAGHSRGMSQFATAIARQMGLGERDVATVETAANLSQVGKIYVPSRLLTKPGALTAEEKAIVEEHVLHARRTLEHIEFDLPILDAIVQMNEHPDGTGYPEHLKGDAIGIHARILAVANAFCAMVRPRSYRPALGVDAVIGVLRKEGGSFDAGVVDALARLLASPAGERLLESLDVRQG", "assay": "isothermal titration calorimetry", "assay_type": "binding"}
{"compound": "Nc1nc2c(ncn2[C@@H]2O[C@@H]3CO[P@](=O)(O)O[C@H]4[C@@H](O)[C@H](n5cnc6c(=O)[nH]c(N)nc65)O[C@@H]4CO[P@](=O)(O)O[C@H]3[C@H]2O)c(=O)[nH]1", "note": "[c-di-GMP]", "values": [{"measurement": "Kd", "result": "322 ± 81", "unit": "nM"}]}
